Laboratory results reported in ChEMBL document CHEMBL1201862, “PubChem BioAssay data set” (2004).
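96-well plates; 48 h exposure; 5 concentrations. Endpoints by linear interpolation between flanking doses. Not reached: highest tested concentration assigned. GI50 is the concentration that inhibits growth by half.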 Active and inactive are the calls of the source. No stated cut-off is given here; in the data, active = GI50 up to about 1.1 µM and inactive = higher.

What was measured:
Test in all cases: DTP human tumour cell line panel, 48 h
CAKI-1 = system: CAKI-1
DLD-1 = system: DLD-1
DMS-273 = system: DMS-273
HCC 2998 = system: HCC 2998
KM-20L2 = system: KM-20L2
M14 = system: M14
M19-MEL = system: M19-MEL
MOLT-4 = system: MOLT-4
OVCAR-3 = system: OVCAR-3
RPMI-8226 = system: RPMI-8226
SK-MEL-5 = system: SK-MEL-5
SNB-75 = system: SNB-75
XF498 = system: XF498
DMS-114 = system: DMS-114
SR = system: SR
BT-549 = system: BT-549
MDA-MB-231 = system: MDA-MB-231
MDA-N = system: MDA-N
PC-3 = system: PC-3
T47D = system: T47D

Measured: GI50

CC(=O)NNc1nc(C)c(C(/C=C/c2ccc(Cl)cc2)=N\NS(=O)(=O)c2ccc(C)cc2)s1
inactive: CAKI-1 > 100 µM | DLD-1 > 100 µM | DMS-273 > 100 µM | HCC 2998 > 100 µM | KM-20L2 > 100 µM | M14 > 100 µM | M19-MEL > 100 µM | MOLT-4 > 100 µM | OVCAR-3 > 100 µM | RPMI-8226 > 100 µM | SK-MEL-5 > 100 µM | SNB-75 > 100 µM | XF498 > 60.4 µM

COC(=O)CCC(NC(=S)N/N=C(\C)c1nccs1)C(=O)OC (configuration not stated)
inactive: DLD-1 40.6 µM | DMS-114 22.6 µM | HCC 2998 52.5 µM | KM-20L2 31.8 µM | M14 41.8 µM | M19-MEL 50.5 µM | MOLT-4 > 10 µM | OVCAR-3 31.3 µM | RPMI-8226 3.23 µM | SK-MEL-5 36.4 µM | SNB-75 68.2 µM | XF498 > 100 µM

COc1ccc(N2C(=O)[C@@H]3[C@H](C2=O)c2[nH]c4ccccc4c2C2CCC(C(C)(C)C)C[C@@H]23)cc1 (some centres not stated)
inactive: CAKI-1 27.7 µM | DLD-1 37.7 µM | DMS-273 41.8 µM | HCC 2998 29.5 µM | KM-20L2 61.9 µM | M14 29.2 µM | M19-MEL 46.9 µM | MOLT-4 14.4 µM | OVCAR-3 21.5 µM | RPMI-8226 22.4 µM | SK-MEL-5 41.2 µM | SNB-75 15.9 µM | XF498 44.8 µM

O=[N+]([O-])C1C2C=CC(C2)[C@H]1c1ccc(Cl)cc1Cl (some centres not stated)
inactive: CAKI-1 > 10 µM | DLD-1 20.3 µM | DMS-273 46.5 µM | HCC 2998 75.5 µM | M14 > 10 µM | M19-MEL 34.8 µM | MOLT-4 26.7 µM | RPMI-8226 24.9 µM | SK-MEL-5 4.36 µM | SNB-75 11.4 µM | SR 35.7 µM | XF498 43.7 µM

CCOC(=O)CCc1c(C)c2c(OC)cc(OC)cc2oc1=O
inactive: CAKI-1 72.3 µM | DLD-1 91.6 µM | DMS-273 41.8 µM | HCC 2998 > 100 µM | KM-20L2 > 100 µM | M14 > 100 µM | M19-MEL > 100 µM | OVCAR-3 > 100 µM | SNB-75 21.5 µM | XF498 35.2 µM

CC1=C(C(=O)O)N2C(=O)[C@@H](NC(=O)C(c3ccc(O)cc3)N3CSC(=S)N(C(C)C)C3)C2SC1 (some centres not stated)
inactive: DLD-1 > 100 µM | DMS-114 > 100 µM | DMS-273 > 100 µM | KM-20L2 > 100 µM | M14 > 100 µM | M19-MEL > 100 µM | MOLT-4 > 100 µM | OVCAR-3 99.1 µM | RPMI-8226 > 100 µM | SK-MEL-5 > 100 µM | SNB-75 > 100 µM | XF498 > 100 µM

CCCCCCCCCCCCOCCCOP(=O)([O-])OCC[N+](C)(C)C
inactive: BT-549 9.04 µM | CAKI-1 13.2 µM | DLD-1 27.9 µM | DMS-273 12.9 µM | HCC 2998 7.4 µM | KM-20L2 17 µM | M14 32.8 µM | M19-MEL 28.2 µM | MDA-MB-231 11.3 µM | MDA-N 13 µM | MOLT-4 20.2 µM | OVCAR-3 51.9 µM | PC-3 2.18 µM | RPMI-8226 9.08 µM | SK-MEL-5 48.6 µM | SNB-75 24.9 µM | SR 11.9 µM | T47D 3.64 µM | XF498 37.7 µM

Cc1c(CCO)c(O)n2c(nc3ccccc32)c1C#N
inactive: CAKI-1 59 µM | DLD-1 > 100 µM | DMS-114 44.5 µM | DMS-273 63.2 µM | HCC 2998 > 100 µM | KM-20L2 66.5 µM | M14 84.1 µM | M19-MEL > 100 µM | OVCAR-3 92.5 µM | RPMI-8226 26.7 µM | SK-MEL-5 21.8 µM | SNB-75 > 100 µM | XF498 > 100 µM

CC(=O)OC1COC(N2CCc3ccccc32)C(OC(C)=O)C1OC(C)=O (configuration not stated)
inactive: CAKI-1 > 100 µM | DLD-1 > 100 µM | DMS-114 > 91.6 µM | DMS-273 > 100 µM | HCC 2998 > 100 µM | KM-20L2 > 100 µM | M14 > 100 µM | M19-MEL > 100 µM | MOLT-4 > 100 µM | OVCAR-3 > 100 µM | RPMI-8226 > 100 µM | SK-MEL-5 > 100 µM | SR > 100 µM | XF498 > 100 µM

COc1cc(C(=C2SCCS2)c2nccc3cc(OC)c(OC)cc23)c([N+](=O)[O-])cc1OC
inactive: DLD-1 > 100 µM | DMS-114 41.6 µM | DMS-273 34.4 µM | HCC 2998 > 100 µM | KM-20L2 51.1 µM | M14 89.9 µM | M19-MEL 72.9 µM | MOLT-4 21.6 µM | OVCAR-3 40.9 µM | RPMI-8226 20.8 µM | SK-MEL-5 23.7 µM | SNB-75 45.1 µM | SR 21.7 µM | XF498 17.9 µM

O=C1C2C3CC(C4C5C=CC(C5)C34)C2C2C3CC(C12)C1C2C=CC(C2)C31 (configuration not stated)
inactive: CAKI-1 > 100 µM | DLD-1 > 100 µM | DMS-114 > 100 µM | DMS-273 > 100 µM | HCC 2998 > 100 µM | KM-20L2 > 100 µM | M14 > 100 µM | M19-MEL > 100 µM | MOLT-4 > 100 µM | OVCAR-3 > 100 µM | SK-MEL-5 > 100 µM | SNB-75 > 100 µM | SR > 100 µM | XF498 > 100 µM

O=C(CC1C(=O)Nc2ccccc2[S+]1[O-])Nc1ccccc1 (configuration not stated)
inactive: CAKI-1 > 100 µM | DLD-1 > 100 µM | DMS-114 > 100 µM | DMS-273 > 100 µM | HCC 2998 > 100 µM | KM-20L2 > 100 µM | M14 > 100 µM | M19-MEL > 100 µM | MOLT-4 > 100 µM | OVCAR-3 > 100 µM | SK-MEL-5 > 100 µM | SNB-75 29.6 µM | SR 17.2 µM | XF498 > 100 µM

CC(=O)O[C@H]1CCC2[C@@H]3CCC4=C(O)C(=O)C(C#N)C[C@]4(C)C3CC[C@@]21C (some centres not stated)
inactive: DLD-1 25.4 µM | DMS-114 25.6 µM | DMS-273 19.4 µM | HCC 2998 29 µM | KM-20L2 81.3 µM | M14 34 µM | M19-MEL 45.2 µM | MOLT-4 30.5 µM | OVCAR-3 38.6 µM | RPMI-8226 12.4 µM | SK-MEL-5 26.1 µM | SNB-75 12.6 µM | XF498 22 µM

O=C(c1ccccc1)c1cccc(C(=O)c2ccccc2)c1
inactive: CAKI-1 > 100 µM | DLD-1 > 100 µM | DMS-114 43.4 µM | DMS-273 > 100 µM | HCC 2998 > 100 µM | M14 > 100 µM | M19-MEL > 100 µM | MOLT-4 67.9 µM | OVCAR-3 > 100 µM | RPMI-8226 > 100 µM | SK-MEL-5 78.9 µM | SNB-75 82 µM | SR 97.9 µM | XF498 > 100 µM
